Activity calls are given as the source filed them.
How the values were obtained:
Danio rerio = test: In Vivo Angiogenesis Dose-Response Confirmation. [Related pubchem assays: 732 (Assay preceding this confirmatory assay.)]; type: functional, organism-based
[1] = tested on: Streptococcus sp. 'group A'; test: growth inhibition of control SK(-) GAS strain, dose response, counter-screen for streptokinase expression inhibitor project, luminescence, kanamycin, BacTiterGlo, confirmation (AID 1900); type: functional, organism-based
[2] = target: Peroxisome proliferator-activated receptor gamma/Nuclear receptor corepressor 2 (Homo sapiens, UniProt P37231+Q9Y618); test: Counterscreen for NR2E3 inverse agonists: TR-FRET-based biochemical high throughput dose response assay to identify inverse agonists of the interaction between peroxisome proliferator-activated receptor gamma (PPARg) and nuclear receptor co-repressor 2 (NCOR2).; type: functional
Streptokinase A = target: T1, Streptokinase A (Streptococcus pyogenes serotype M1, UniProt P10520); test: S. pyogenes streptokinase expression inhibitors, potency, dose response, plasminogen activation absorbance, OD405 (AID 1914); type: functional, Streptococcus pyogenes M1 GAS;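 also: secreted streptokinase activity via plasminogen activation per viability signal from cell pellet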
T1 sequence (P10520 whole entry): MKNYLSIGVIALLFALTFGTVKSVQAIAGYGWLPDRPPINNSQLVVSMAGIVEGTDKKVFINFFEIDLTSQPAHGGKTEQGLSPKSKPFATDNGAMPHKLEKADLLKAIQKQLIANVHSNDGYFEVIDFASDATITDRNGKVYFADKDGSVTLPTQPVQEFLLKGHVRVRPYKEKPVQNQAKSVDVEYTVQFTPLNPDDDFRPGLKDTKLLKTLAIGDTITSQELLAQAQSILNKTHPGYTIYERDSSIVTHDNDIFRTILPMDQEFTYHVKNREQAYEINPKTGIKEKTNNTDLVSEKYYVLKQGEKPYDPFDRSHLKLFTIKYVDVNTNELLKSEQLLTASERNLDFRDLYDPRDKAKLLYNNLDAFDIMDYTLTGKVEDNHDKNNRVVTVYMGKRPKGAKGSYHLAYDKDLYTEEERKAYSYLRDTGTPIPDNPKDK

Streptococcus = test: Group A Streptococcus viability loss, dose response, counter-screen for streptokinase expression inhibitor project, luminescence, BacTiterGlo (AID 1915); type: functional, organism-based;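 also: potency for reduction of bacterial viability or growth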
[3] = target: T2, Photoreceptor-specific nuclear receptor (Homo sapiens, UniProt Q9Y5X4); type: functional, cell-based;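 also: CHO-S cells with Gal4-NCOR and VP16-NR2E3 two-hybrid luciferase reporter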
[4] = target: T2, Photoreceptor-specific nuclear receptor; test: NR2E3 inverse agonists, dose response, biochemical, TR-FRET (AID 463256); type: functional
[5] = target: T3, Voltage-gated N-type calcium channel alpha-1B subunit/Amyloid beta A4 precursor protein-binding family A member 1 (Homo sapiens, UniProt Q00975+Q02410); type: protein assay
[6] = target: T3, Voltage-gated N-type calcium channel alpha-1B subunit/Amyloid beta A4 precursor protein-binding family A member 1; type: protein assay; remark: listed apart in the source
Vero [7] = test: host cell cytotoxicity of antiviral hits, dose response, cytotoxicity control for West Nile virus antiviral project, secondary assay (AID 1650); type: functional; details: Chlorocebus sabaeus
[8] = target: T4, Ubiquitin-conjugating enzyme E2 N (Homo sapiens, UniProt P61088); type: functional;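 also: Dose-response confirmation in a TR-FRET assay detecting UBC13-driven polyubiquitin chain formation, inhibition measured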
T4 sequence (P61088 whole entry): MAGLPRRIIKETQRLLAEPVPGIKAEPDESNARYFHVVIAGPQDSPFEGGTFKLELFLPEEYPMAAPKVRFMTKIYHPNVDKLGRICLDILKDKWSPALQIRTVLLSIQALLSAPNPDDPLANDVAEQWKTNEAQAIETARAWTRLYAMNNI

[9] = target: Mitogen-activated protein kinase 10 (Homo sapiens, UniProt P53779); test: Dose response biochemical screening assay for inhibitors of c-Jun N-Terminal Kinase 3 (JNK3). [Related pubchem assays: 746 ]
Major prion protein = Major prion protein (Homo sapiens, UniProt P04156); type: functional, cell-based
[10] = target: T5, Small ubiquitin-related modifier 1 (Homo sapiens, UniProt P63165); test: inhibitors of SUMO1 peptide binding, dose response, biochemical, fluorescence polarization, uHTS hits (AID 624382); type: functional; details: read-out: IC50_Mean
[11] = target: T5, Small ubiquitin-related modifier 1; test: inhibitors of SUMO1 partner interactions, dose response, biochemical, FRET (AID 624383); type: functional; details: read-out: IC50_Mean
[12] = inhibitors of Vif binding to APOBEC3G peptide, primary screen, biochemical, TR-FRET, GST-Vif 1-94, biotin-A3G peptide, dose response retest (AID 1117319); type: functional;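 also: TR-FRET signal of purified GST-Vif binding a biotinylated A3G peptide; inhibitors lower the FRET signal by blocking Vif and A3G binding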
Beta-galactosidase = Beta-galactosidase (Escherichia coli, UniProt Q8VNN2); test: beta-galactosidase enzyme inhibitors and activators, dose response, artefact control for CCR6 antagonist project, biochemical, E. coli enzyme, set 3 (AID 504712); type: functional
[13] = inhibitors of firefly luciferase expression or activity, dose response, H4 neuroglioma cells, luminescence (AID 1990); type: functional, cell-based
Vero [14] = test: Vero cell cytotoxicity, cytotoxicity control for flavivirus capping enzyme inhibitors (AID 588742); type: functional; details: Chlorocebus sabaeus
[15] = C. albicans growth with fluconazole, confirmation, fluorescence, retest (AID 2467); type: functional, cell-based
[16] = microbe, parasite or virus in culture; type: functional; details: Mycobacterium tuberculosis
[17] = target: Voltage-gated inwardly rectifying potassium channel KCNH2 (Homo sapiens, UniProt Q12809); test: hERG protection from proarrhythmic block, potency, dose response, cell-based, thallium flux (AID 2121); type: ADME
[18] = NIH-3T3 fibroblast cytotoxicity, dose response, cytotoxicity control, cell-based, fluorescence, Alamar Blue, secondary assay (AID 2327); type: functional;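 also: NIH-3T3 mouse fibroblasts cultured with fluconazole at 8 µg/mL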
[19] = Luminescence Cell-Based Dose Response HTS to Identify Inhibitors of 5'UTR Stem-Loop Driven Prion Protein mRNA Translation in H4 Neuroglioblastoma Cells. [Related pubchem assays: 1827 (Project Summary), 1813 (Primary HTS)]; type: functional
[20] = inhibitors of SNCA 5'UTR-driven reporter translation, confirmation, H4 neuroglioma cells, luminescence (AID 1988); type: functional, cell-based
[21] = target: 5-hydroxytryptamine receptor 1A (Homo sapiens, UniProt P08908); type: functional

Compound: Cc1cccc2c1NC(=O)/C2=C1\Nc2ccccc2\C1=N/OCCN1CCNCC1
- IC50 (Danio rerio): 6.32 µM (active)

Compound: Cc1ccnc(NC(=S)N2CCN(c3cccc(C(F)(F)F)c3)CC2)c1
- EC50 [1]: 1.66 µM (active)
- IC50 [2]: > 39.9 µM (not active)
- EC50 (Streptokinase A): > 150 µM (not active)
- EC50 (Streptococcus): 22.4 µM (active)
- IC50 [3]: 1.76 µM (active)
- IC50 [4]: > 39.9 µM (not active)
- IC50 [5]: 11.6 µM (active)
- IC50 [6]: > 50 µM (inactive)

Compound: CCCN(CCC)CCCNC(=O)c1cc2c(=O)n(CC)c3ccccc3c2s1
- CC50 (Vero [7]): 18.8 µM (active)
- IC50 [8]: > 20 µM (inactive)

Compound: Cc1nn(C(C)C(=O)O)c(=O)c2c1sc1ccccc12 (configuration not stated)
- IC50 [9]: > 93.1 µM (not active)
- IC50 (cells): > 138 µM (inactive)
- IC50 (Major prion protein): 8.45 µM (active)

Compound: CCCN1Cc2cccc(C(=O)NCc3ccccc3)c2C1=O
- IC50 [9]: 57.8 µM (not active)

Compound: Cc1nc2ccc3nc(NC(=O)c4ccco4)sc3c2s1
- IC50 [10]: > 66.6 µM (inactive)
- IC50 [2]: 4.28 µM (active)
- IC50 [4]: 4.28 µM (active)
- IC50 [11]: 12.1 µM (active)

Compound: CCC1S/C(=C(\C#N)C(=O)NCc2ccco2)N(c2ccc(F)cc2)C1=O (configuration not stated)
- IC50 [12]: > 100 µM (active)

Compound: CCc1ccc(/C=C/C(=O)c2cc(Br)ccc(=O)c2O)cc1
- IC50 (Beta-galactosidase): > 66.6 µM (inactive)
- EC50 [13]: > 120 µM (not active)
- CC50 (Vero [14]): 13.5 µM (active)
- EC50 [1]: 1.8 µM (active)
- EC50 [15]: 1.52 µM (active)
- CC50 [16]: 11.5 µM (active)
- EC50 (Streptococcus): 2.6 µM (active)
- EC50 [17]: 1.15 µM (active)
- EC50 [18]: 15.5 µM (inconclusive)
- EC50 [19]: 15 µM (active)
- EC50 [20]: 15.5 µM (active)

Compound: Cc1noc(C)c1COc1ccc(C(=O)OC(C)C(=O)Nc2ccc(N3CCOCC3)cc2)cc1 (configuration not stated)
- EC50 [21]: > 50 µM (not active)
